PubChem BioAssay AID1963838 (Molecular Pharmacology Branch, DTP, NCI, 2024)
Values joined by “and” are separate entries in the source; they are usually repeats but may differ in a detail not shown here. Equal values may be shown once. Each block holds one compound with its values, some of them ahead of it.

Test system: 855422-203-R-J1-PDC complex spheroid viability
Assay: Anticancer human tumor 855422-203-R-J1-PDC patient-derived bladder carcinoma cell line growth inhibition [POLQ]
Conditions: for viability, T/C: stronger effect = lower value
Experimental: Multicellular complex tumor spheroid response to Polymerase (POL) inhibitors (novobiocin, ART-558, RP6685) in combination with a variety of drugs and investigational agents in selected tumor cell lines
The POL inhibitors (novobiocin, ART-558, and RP6685) were evaluated both individually and in combination with standard of care and investigational anticancer small molecules within a complex spheroid model of solid tumors. . Complex spheroids include a stromal component modeled by human endothelial cells (HUVEC) and fibroblasts modeled by human mesenchymal stem cells (MSCs). The concentration ranges selected for each drug and investigational agent were based upon clinically achievable concentrations if the clinical Cmax of the agent was known.
Compounds. The drugs and investigational agents: novobiocin (NSC847541), ART-558 (NSC835418), RP-6685 (NSC848927), peposertib (NSC802822), ceralasertib (NSC780249), elimusertib (NSC800525), camonsertib (NSC841442), AZD-1390 (NSC803789), olaparib (NSC753686), talazoparib (NSC767125), rucaparib (NSC756644), sotorasib (NSC818433), MRTX-1133 (NSC836407), SN-38 (NSC673596), topotecan (NSC609699), epotoside (NSC141540), doxorubicin (NSC123127), gemcitabine (NSC613327), 5-fluorouracil (NSC19893), paclitaxel (NSC125973), vemurafenib (NSC761431), MSA-2 (NSC828583), SN-011 (NSC837082), adavosertib (NSC754352), prexasertib (NSC758257), carboplatin (NSC241240) and oxaliplatin (NSC266046), were obtained from the National Cancer Institute (NCI) Developmental Therapeutics Program Chemical Repository (21). The FDA-approved anticancer drug set is available from the Developmental Therapeutics Program at https://dtp.cancer.gov/organization/dscb/obtaining/. […] The stock solutions were prepared in dimethyl sulfoxide (DMSO, Sigma-Aldrich, St. Louis, MO, cat. D2650), except for the platinum compounds which were prepared in saline (Quality Biological, Gaithersburg, MD, cat. 114-055-101), at 800-fold the tested concentration and stored at -70 degrees C prior to their use. All drugs and investigational agents were tested over a range starting from a high concentration at or near the clinical Cmax and decreasing in half-log increments. If the clinical Cmax for an agent had not been determined, the highest concentration tested was 10 microM, except for SN-38, which was tested at a high concentration of 1 microM.
Cell Culture. All cells were maintained in an incubator at 37 degrees C and 5% CO2 with 95% humidity. The PDC lines were cultured according to standard operating procedures established by the NCI PDMR (https://pdmr.cancer.gov). Table 3 of the manuscript, lists the cell lines along with the number of the three cell types plated to form the mct-spheroids and media for tumor cell growth. After thawing, all PDC lines, except 997537-175-T-J1-PDC and 415267-285-R-J2-PDC, were cultured in Matrigel-coated flasks prepared with a working solution of 1X Ham's F-12 nutrient mix, without supplementation (Thermo Fisher Scientific, cat. 11765054), 100 U/mL penicillin-streptomycin (Thermo Fisher Scientific, cat. 15140122), and 2.5% Matrigel (Corning Inc., Corning, NY, cat. 354248) for the first three passages. The two PDC lines 997537-175-T-J1-PDC and 415267-285-R-J2-PDC were cultured on uncoated flasks. The 857933-349-R-J2-PDC line was cultured in 6C/Colon 1B media containing advanced DMEM/F-12 (Thermo Fisher Scientific, cat. 12634028), 10 mM HEPES (Thermo Fisher Scientific, cat. 15630080), 1X GlutaMAX supplement (Thermo Fisher Scientific, cat. 35050061), 0.1 mg/mL primocin (InvivoGen, San Diego, CA, cat. ant-pm-2), 10% defined fetal bovine serum, heat inactivated (HyClone Laboratories Inc., Logan, UT, cat. SH30070.03HI), 50% L-WRN conditioned media (ATCC, cat. CRL-3276), 1.25 mM N-Acetyl-L-cysteine (Sigma-Aldrich, cat. A9165), 10 mM nicotinamide (Sigma-Aldrich, cat. N0636), 1X B-27 supplement (Thermo Fisher Scientific, cat. 17504044), 1X N-2 supplement (Thermo Fisher Scientific, cat. […]
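Further: spheroids exposed to compounds for seven days before readout.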

SMILES: CC(C)n1c(=O)n(C)c2cnc3cc(F)c(-c4ccc(OCCCN5CCCCC5)nc4)cc3c21
- viability, T/C (compound 0.0316 µM): 100% and 106% and 98.1%
- viability, T/C (compound 0.1 µM): 96.9% and 119% and 91.5%
- viability, T/C (compound 0.316 µM): 103% and 111% and 98.1%
- viability, T/C (compound 1 µM): 97.5% and 101% and 93%
- viability, T/C (compound 3.16 µM): 83.8% and 95.1% and 86.4%
- viability, T/C (compound 10 µM): 56.6% and 97.9% and 74.8%
- IC50 (curve of compound): > 10 µM

- IC50 (compound alone, run of 01/08/2024): > 10 µM
- IC50 (compound alone, run of 01/19/2024): > 10 µM
SMILES: Cc1cccc(N(C)C(=O)C2C(O)CCN2c2nc(C)cc(C(F)(F)F)c2C#N)c1 (stereo not given)
- viability, T/C (compound 0.0316 µM): 107% [middle of 13 runs]
- viability, T/C (compound 0.316 µM): 106% [middle of 13 runs]
- viability, T/C (compound 1 µM): 102% [middle of 13 runs]
- viability, T/C (compound 3.16 µM): 102% [middle of 13 runs]
- viability, T/C (compound 10 µM): 103% [middle of 13 runs]

SMILES: CC1COCCN1c1cc(-c2ccnn2C)c2ccnc(-c3ccn[nH]3)c2n1 (stereo not given)
- viability, T/C (compound 0.0316 µM): 99.3% and 108% and 116%
- viability, T/C (compound 0.1 µM): 70.3% and 81.8% and 110%
- viability, T/C (compound 0.316 µM): 23.4% and 22.9% and 30.8%
- viability, T/C (compound 1 µM): 11.2% and 11% and 16.2%
- viability, T/C (compound 3.16 µM): 8.42% and 8.52% and 10.7%
- viability, T/C (compound 10 µM): 6.55% and 7.74% and 10.3%
- IC50 (curve of compound): 0.165 µM and 0.186 µM and 0.239 µM

SMILES: Nc1ccn(C2OC(CO)C(O)C2(F)F)c(=O)n1 (stereo not given)
- viability, T/C (compound 0.0316 µM): 81.1% and 75.1% and 69.6%
- viability, T/C (compound 0.1 µM): 41.7% and 19.3% and 37.9%
- viability, T/C (compound 0.316 µM): 17.7% and 14.3% and 12.9%
- viability, T/C (compound 1 µM): 13.3% and 13.5% and 11.3%
- viability, T/C (compound 3.16 µM): 7.69% and 9.12% and 7.82%
- viability, T/C (compound 10 µM): 6.31% and 7.6% and 6.51%
- IC50 (curve of compound): 0.0777 µM and 0.0531 µM and 0.0642 µM

SMILES: CNCc1ccc(-c2[nH]c3cc(F)cc4c3c2CCNC4=O)cc1 + Nc1ccc(C#CCN(C(=O)Cc2ncc(C(F)(F)F)cc2C(F)(F)F)c2ccc(F)cc2)nn1
- IC50 (curve of first compound, second compound 0.0316 µM): > 10 µM
- IC50 (curve of first compound, second compound 0.1 µM): > 10 µM
- IC50 (curve of first compound, second compound 0.316 µM): > 10 µM
- IC50 (curve of first compound, second compound 1 µM): > 10 µM
- IC50 (curve of first compound, second compound 3.16 µM): > 10 µM
- IC50 (curve of first compound, second compound 10 µM): > 10 µM
- viability, T/C (second compound 0.0316 µM, first compound 0.0316 µM): 94.5%
- viability, T/C (second compound 0.0316 µM, first compound 0.1 µM): 131%
- viability, T/C (second compound 0.0316 µM, first compound 0.316 µM): 102%
- viability, T/C (second compound 0.0316 µM, first compound 1 µM): 102%
- viability, T/C (second compound 0.0316 µM, first compound 3.16 µM): 106%
- viability, T/C (second compound 0.0316 µM, first compound 10 µM): 116%
- viability, T/C (second compound 0.1 µM, first compound 0.0316 µM): 97.8%
- viability, T/C (second compound 0.1 µM, first compound 0.1 µM): 154%
- viability, T/C (second compound 0.1 µM, first compound 0.316 µM): 112%
- viability, T/C (second compound 0.1 µM, first compound 1 µM): 86%
- viability, T/C (second compound 0.1 µM, first compound 3.16 µM): 99.2%
- viability, T/C (second compound 0.1 µM, first compound 10 µM): 115%
- viability, T/C (second compound 0.316 µM, first compound 0.0316 µM): 100%
- viability, T/C (second compound 0.316 µM, first compound 0.1 µM): 121%
- viability, T/C (second compound 0.316 µM, first compound 0.316 µM): 108%
- viability, T/C (second compound 0.316 µM, first compound 1 µM): 91.4%
- viability, T/C (second compound 0.316 µM, first compound 3.16 µM): 100%
- viability, T/C (second compound 0.316 µM, first compound 10 µM): 119%
- viability, T/C (second compound 1 µM, first compound 0.0316 µM): 90.9%
- viability, T/C (second compound 1 µM, first compound 0.1 µM): 115%
- viability, T/C (second compound 1 µM, first compound 0.316 µM): 91.4%
- viability, T/C (second compound 1 µM, first compound 1 µM): 104%
- viability, T/C (second compound 1 µM, first compound 3.16 µM): 118%
- viability, T/C (second compound 1 µM, first compound 10 µM): 112%
- viability, T/C (second compound 3.16 µM, first compound 0.0316 µM): 94.9%
- viability, T/C (second compound 3.16 µM, first compound 0.1 µM): 119%
- viability, T/C (second compound 3.16 µM, first compound 0.316 µM): 101%
- viability, T/C (second compound 3.16 µM, first compound 1 µM): 97.3%
- viability, T/C (second compound 3.16 µM, first compound 3.16 µM): 101%
- viability, T/C (second compound 3.16 µM, first compound 10 µM): 104%
- viability, T/C (second compound 10 µM, first compound 0.0316 µM): 98.3%
- viability, T/C (second compound 10 µM, first compound 0.1 µM): 102%
- viability, T/C (second compound 10 µM, first compound 0.316 µM): 107%
- viability, T/C (second compound 10 µM, first compound 1 µM): 100%
- viability, T/C (second compound 10 µM, first compound 3.16 µM): 110%
- viability, T/C (second compound 10 µM, first compound 10 µM): 97.8%
